Experimental data: the ASAP Discovery antiviral challenge data (2025)

How the values were obtained:
MERS-CoV Mpro = MERS-CoV Mpro (UniProt K9N7C7)
SARS-CoV-2 Mpro = SARS-CoV-2 Mpro (UniProt P0DTD1)

## O=C(NCc1cccs1)[C@@H]1CN(C(=O)c2cccnc2)CCN1c1ccc(Cl)c(Cl)c1
MERS-CoV Mpro
  IC50: 57.5 µM
SARS-CoV-2 Mpro
  IC50: 0.123 µM
